# Results taken from publication PMC7203124, “Structural Basis for PPARα Activation by 1H-pyrazolo-[3,4-b]pyridine Derivatives” (Scientific Reports, 2020).
# Target: T1, PPARα (Homo sapiens, UniProt Q07869, I272F)
# T1 construct: gene PPARA; hPPARα LBD
# T1 sequence (Q07869 199-468 I272F limits assumed): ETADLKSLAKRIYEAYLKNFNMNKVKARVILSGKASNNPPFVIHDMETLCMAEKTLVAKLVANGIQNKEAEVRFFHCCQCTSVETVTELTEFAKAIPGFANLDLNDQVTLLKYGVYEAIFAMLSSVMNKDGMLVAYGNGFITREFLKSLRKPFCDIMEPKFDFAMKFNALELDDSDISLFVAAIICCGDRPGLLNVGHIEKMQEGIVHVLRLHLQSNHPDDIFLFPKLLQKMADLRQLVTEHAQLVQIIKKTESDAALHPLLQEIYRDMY
# Test: transactivation reporter assay at […]
# Assay type: cell-based
compound,measurement,value
CC(C)(Oc1ccc(C(=O)c2ccc(Cl)cc2)cc1)C(=O)O [fenofibric acid],transactivation reporter assay at 10 μM,while fenofibric acid showed comparable activity between WT and Ile272Phe
